Results reported in patent publication US12643867B2, “Compositions and uses thereof” (University of Virginia Patent Foundation, priority 2017, dated 2026).

How the values were obtained:
[1] = target: T1, STK10 (Serine/threonine-protein kinase 10) (Homo sapiens, UniProt O94804); experiment: SILAC LC-MS ATP acyl phosphate probe competition, native kinases in HEK293T; assay type: binding; conditions: site Lys2; ATP 1 mM; Ketanserin, Ritanserin 100 μM; RF001 1 mM
T1 construct: Native kinases; endogenous in cells; host or cells: HEK293T soluble proteome
Description: (§1) Proteomes were diluted to 2 mg/ml in kinase buffer. The light and heavy proteomes (0.5 mg, 250 μL total reaction volume) were pre-treated with vehicle or compound, respectively (5 μL, DMSO (light) or 50× stock in DMSO (heavy)), mixed gently, and incubated at 25° C. for 30 min. […] After incubation, matched light and heavy proteomes were transferred and mixed in a 1:1 ratio in a two-dram vial containing 4:1:3 MeOH/CHCl3/H2O (2 mL MeOH, 500 AL CHCl3, 1.5 mL H2O) for extraction of proteins to remove excess probe, quickly vortexed, and centrifuged at 1,400×g for 3 min to pellet protein. Organic and aqueous layers were removed using a Pasteur pipette, and the protein pellet was transferred to a screw-top tube in 600 μL MeOH. A second extraction was performed by adding CHCl3 (150 μL) and H2O (600 μL) to each sample, vortexed, and centrifuged at 1,400×g for 3 min to pellet protein. Organic and aqueous layers were removed by pipetting. MeOH added to pellet (600 μL) and pellets were re-suspended by sonication (3×1 sec pulse, 20% amplitude) for a final extraction. Samples were then centrifuged at 17,000×g for 5 min to pellet protein and MeOH was removed by pipetting. The pellets were re-suspended in 10 M urea/25 mM ammonium bicarbonate ([…]), brought to a final volume of 1 mL with 25 mM ammonium bicarbonate, reduced with 10 mM DTT for 15 min at 65° C. allowed to cool, and then alkylated with 40 mM iodoacetamide for 30 min at 25° C. in the dark. To desalt the samples, each was transferred to a two-dram glass vial, and to the vial 4:1:2 MeOH/CHCl3/H2O (2 mL MeOH, 500 AL CHCl3, 1 mL H2O) was added. The vials were vortexed quickly, spun at 1.400×g for 3 min to pellet protein, and aqueous and organic layers were removed using a Pasteur pipette. The resulting protein pellet was transferred to a screw-top tube in 600 μL MeOH, and then CHCl3 (150 μL) and HO (600 μL) were added to extract protein a second time. The samples were vortexed quickly, centrifuged at 1,400×g to pellet protein, and the aqueous and organic layers were removed by pipetting. Resulting protein pellet was suspended in MeOH (600 μL) via sonication (3×1 sec pulse, 20% amplitude), centrifuged at 17,000×g for 5 min to pellet protein, and MeOH removed by pipetting. Protein pellets were then re-suspended in 25 mM ammonium bicarbonate (500 μL) and digested with 7.5 μg Trypsin/Lys-C(Promega, 15 μL, 0.5 μg/μL) for 3 h at 37° C. Avidin-agarose beads (Thermo Scientific Pierce, 100 AL aliquot per sample) were washed three times by adding 10 mL DPBS, centrifuged at 1,400×g for 1 min, and decanting. This wash step was repeated for a total of 3 times. Digested protein samples were mixed with washed avidin beads (100 μL) and brought to a volume of 5.5 mL with DPBS in a 15 mL conical and rotated for 1 h to enrich samples for the covalent desthiobiotin modification. The beads were washed with 25 mM ammonium bicarbonate (3× with 10 mL, centrifuge at 1,400×g for 3 min, decant) and then H2O (3× with 10 mL, centrifuge at 1,400×g for 3 min, decant). Washed beads were then transferred to a low-bind microfuge tube, centrifuged at 1,400×g for 3 min, allowed to rest for 1 min to settle beads, and then excess H2O was removed carefully using a gel-loading pipette tip. To elute peptides, 100 μL of elution buffer (50% acetonitrile, ACN; 0.1% formic acid) was added to each sample and incubated for 3 min. Beads were spun down at 1.400×g for 3 min, allowed to rest for 1 min to settle beads, and then 75 μL of peptide-containing supernatant was removed carefully using a gel-loading pipette tip and transferred to a new low bind centrifuge tube. This step was repeated two more times with 75 μL of elution buffer and all eluent were collected into the same centrifuge tube (˜225 μL total). Peptides were dried on a speed vacuum, resulting peptide samples acidified in 5% (v/v) formic acid, and stored at −80° C. until analysis.
(§2) The peptide samples were analyzed by liquid chromatography-mass spectrometry. […]

[2] = target: T2, BRAF (B-Raf proto-oncogene serine/threonine-protein kinase) (Homo sapiens, UniProt P15056); experiment: as above; assay type: binding; conditions: site Lys2; ATP 1 mM; Ketanserin, Ritanserin 100 μM; RF001 1 mM
T2 construct: measured against >50 native kinases quantified in HEK293T soluble proteomes; endogenous in cells; host or cells: HEK293T soluble proteome
Description: as §1, §2

T2 sequence (P15056 whole entry): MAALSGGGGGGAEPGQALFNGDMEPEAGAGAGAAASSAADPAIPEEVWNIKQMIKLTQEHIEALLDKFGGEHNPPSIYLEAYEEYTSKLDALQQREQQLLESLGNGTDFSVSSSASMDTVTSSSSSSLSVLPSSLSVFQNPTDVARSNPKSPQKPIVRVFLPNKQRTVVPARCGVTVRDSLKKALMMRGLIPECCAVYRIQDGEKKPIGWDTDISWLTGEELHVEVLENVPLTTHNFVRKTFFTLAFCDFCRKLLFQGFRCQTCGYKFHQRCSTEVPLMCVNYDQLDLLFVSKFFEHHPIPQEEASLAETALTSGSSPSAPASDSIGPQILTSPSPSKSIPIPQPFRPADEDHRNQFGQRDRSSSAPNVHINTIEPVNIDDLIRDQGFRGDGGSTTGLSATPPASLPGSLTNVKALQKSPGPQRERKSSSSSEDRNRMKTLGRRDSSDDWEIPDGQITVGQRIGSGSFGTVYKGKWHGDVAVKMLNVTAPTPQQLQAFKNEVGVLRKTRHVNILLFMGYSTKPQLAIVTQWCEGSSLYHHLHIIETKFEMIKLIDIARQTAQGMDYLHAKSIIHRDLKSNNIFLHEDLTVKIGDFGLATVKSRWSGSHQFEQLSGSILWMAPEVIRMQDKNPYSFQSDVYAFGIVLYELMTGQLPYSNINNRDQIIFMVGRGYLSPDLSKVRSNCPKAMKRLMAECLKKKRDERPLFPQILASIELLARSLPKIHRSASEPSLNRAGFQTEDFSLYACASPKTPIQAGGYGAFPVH
T1 sequence (O94804 whole entry): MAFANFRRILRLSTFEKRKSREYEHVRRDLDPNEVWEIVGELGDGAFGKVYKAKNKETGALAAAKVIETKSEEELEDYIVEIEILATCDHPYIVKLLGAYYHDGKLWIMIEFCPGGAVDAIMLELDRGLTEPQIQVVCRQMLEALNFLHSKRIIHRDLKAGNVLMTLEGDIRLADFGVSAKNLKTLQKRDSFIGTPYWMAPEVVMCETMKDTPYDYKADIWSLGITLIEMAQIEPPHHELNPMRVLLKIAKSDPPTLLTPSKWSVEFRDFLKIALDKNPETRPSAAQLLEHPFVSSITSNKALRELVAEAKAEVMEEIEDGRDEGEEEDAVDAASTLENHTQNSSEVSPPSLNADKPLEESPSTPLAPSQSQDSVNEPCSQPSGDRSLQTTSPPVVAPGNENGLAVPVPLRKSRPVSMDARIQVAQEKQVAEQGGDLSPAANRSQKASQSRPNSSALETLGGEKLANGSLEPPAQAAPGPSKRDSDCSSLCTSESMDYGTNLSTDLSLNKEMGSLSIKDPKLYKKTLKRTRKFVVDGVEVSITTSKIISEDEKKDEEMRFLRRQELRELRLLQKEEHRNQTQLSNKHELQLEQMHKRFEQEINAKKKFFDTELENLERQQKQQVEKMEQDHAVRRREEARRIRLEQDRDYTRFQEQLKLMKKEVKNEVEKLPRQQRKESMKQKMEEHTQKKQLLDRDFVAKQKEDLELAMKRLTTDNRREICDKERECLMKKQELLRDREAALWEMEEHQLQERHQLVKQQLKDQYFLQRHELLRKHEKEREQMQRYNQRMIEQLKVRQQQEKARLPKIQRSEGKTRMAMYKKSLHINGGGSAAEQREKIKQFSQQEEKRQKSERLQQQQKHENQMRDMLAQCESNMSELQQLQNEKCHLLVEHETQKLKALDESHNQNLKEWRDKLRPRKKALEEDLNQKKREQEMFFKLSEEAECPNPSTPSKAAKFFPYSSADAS

SMILES	SILAC ratio, STK10 probe-modified peptide [1]	SILAC ratio, BRAF probe-modified peptide [2]
O=C(c1ccc(F)cc1)C1CCN(CCn2c(=O)[nH]c3ccccc3c2=O)CC1 [Ketanserin]	1.3	1.6
Fc1ccc(C(=C2CCNCC2)c2ccc(F)cc2)cc1 [RF001, 4-(Bis(4-fluorophenyl)methylene) piperidine]	1.1	1.1
Cc1nc2sccn2c(=O)c1CCN1CCC(=C(c2ccc(F)cc2)c2ccc(F)cc2)CC1 [Ritanserin]	1.7	1.8
